Test system: 233499-124-R-J3-PDC complex spheroid viability, % test/control
Assay: Anticancer human tumor 233499-124-R-J3-PDC patient-derived colon adenocarcinoma cell line growth inhibition
Conditions: for IC50: curve of first compound; for viability, T/C: stronger effect = lower value; active = viability on the fitted dose curve at most 10% of control; inactive = the rest
Source text: Multicellular complex tumor spheroid response to LSD1 Inhibitor Iadademstat in combination with a variety of drugs and investigational agents in selected tumor cell lines
The current study was undertaken to assess response to LSD1 inhibitors in combination with standard-of-care drugs and investigational agents in solid tumor complex spheroid models as well as in the K-562 leukemia. Complex spheroids include a stromal component modeled by human endothelial cells (HUVEC) and fibroblasts modeled by human mesenchymal stem cells (MSCs). The concentration ranges selected for each drug and investigational agent were based upon clinically achievable concentrations if the clinical Cmax of the agent was known.
Compounds. The drugs and investigational agents used in this study are listed on Table 1. All of the agents used, including staurosporine (NSC755774) and gemcitabine (NSC613327), were obtained from the Developmental Therapeutics Program, NCI. FDA-approved anticancer drugs are available from the NCI at http://dtp.nci.nih.gov/branches/dscb/oncology_drugset_explanation.html. Drugs and investigational agents were >95% pure by proton nuclear magnetic resonance (NMR) and liquid chromatography/mass spectrometry (LC/MS). Stock solutions were prepared at 400x in DMSO, stored at -70 degrees C, and diluted in fresh medium prior to their use. The final concentration of DMSO in cell culture wells never exceeded 0.25% (v/v). The FDA-approved anticancer drug set is available from the Developmental Therapeutics Program at https://dtp.cancer.gov/organization/dscb/obtaining/available_plates.htm. All drugs and investigational agents were tested over a range starting from a high concentration at or near the clinical Cmax and decreasing in half-log increments. If the clinical Cmax for an agent had not been determined, the highest concentration tested was 10 microM.
Cell Lines. The patient-derived cancer cell (PDC) lines: 292921-168-R-J2-PDC, K24384-001-R-PDC, and 521955-158-R2-J5-PDC pancreatic carcinomas, 556581-035-R-J1 ovarian carcinoma, 324938-238-R-J1-PDC, 855422-203-R-J1-PDC and 883617-216-R-J1-PDC urothelial bladder carcinomas, 743489-274-T-PDC renal cell carcinoma, 138582-R-J1 Merkel cell tumor, K60290-347-R-J1 and K57222-313-R-J1-PDC glioblastomas, 653999-131-R-J2-PDC, LG0703-F948-PDC, and 349418-098-R-PDC non-small cell lung carcinomas, 885512-296-R-J2-PDC, 171881-019-R-J1-PDC breast carcinomas and 186277-243-T-J2-PDC and 233499-124-R-J2-PDC colon carcinomas were obtained from the NCI Patient-Derived Models Repository (PDMR, https://pdmr.cancer.gov). The established cell lines NCI/ADR-RES (RRID:CVCL_14520 and OVCAR-5 (RRID:CVCL_1628) ovarian carcinomas, 786-O (RRID:CVCL_1051) and A498 (RRID:CVCL_A498) renal cell carcinoma, NCI-H211 (ATCC, cat. CRL-5824; RRID:CVCL_1529), NCI-H196 (ATCC, cat. CRL-5823, RRID:CVCL_1509), SW 1271 (ATCC, cat. CRL-2177, RRID:CVCL_1716) and NCI-H1876 (ATCC, cat. CRL-5902, RRID:CVCL_1503) small cell lung carcinomas, MDA-MB-231 (RRID:CVCL_0062) and MDA-MB-468 (RRID:CVCL_0419)breast carcinomas (10-12). Pooled donor human umbilical vein endothelial cells (HUVEC, Lonza, cat. CC-2519) and human mesenchymal stem cells (hMSC, Lonza, cat. PT-2501) were purchased from Lonza (Walkersville, MD).
Cell Culture. All cells were maintained in an incubator at 37 degrees C and 5% CO2 with 95% humidity. The PDC lines were cultured according to standard operating procedures established by the NCI PDMR (https://pdmr.cancer.gov). Briefly all PDCs were thawed and cultured in Matrigel-coated flasks prepared with a working solution of 1X Ham's F-12 nutrient mix, without supplementation (Invitrogen, Waltham, MA, cat. 11765054), 100 U/mL penicillin-streptomycin (Invitrogen, cat. 15140122), and 2.5% Matrigel (Corning Inc., Corning, NY, cat. 354248) for the first three passages. […]
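Note: spheroids exposed to agents for one week before readout.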

COc1cc(C2c3cc4c(cc3C(OC3OC5COC(C)OC5C(O)C3O)C3COC(=O)C23)OCO4)cc(OC)c1O (stereo not given) + NC1CCC(NC2CC2c2ccccc2)CC1
1.29 µM: IC50 (second compound 10 µM)
inactive: viability, T/C (second compound 0.1 µM, first compound 0.00949 µM) 96.6% | viability, T/C (second compound 0.1 µM, first compound 0.03 µM) 102% | viability, T/C (second compound 0.1 µM, first compound 0.0949 µM) 80.8% | viability, T/C (second compound 0.1 µM, first compound 0.3 µM) 88.8% | viability, T/C (second compound 0.1 µM, first compound 0.949 µM) 81% | viability, T/C (second compound 0.1 µM, first compound 3 µM) 75.5% | viability, T/C (second compound 0.316 µM, first compound 0.00949 µM) 119% | viability, T/C (second compound 0.316 µM, first compound 0.03 µM) 115% | viability, T/C (second compound 0.316 µM, first compound 0.0949 µM) 89% | viability, T/C (second compound 0.316 µM, first compound 0.3 µM) 95% | viability, T/C (second compound 0.316 µM, first compound 0.949 µM) 89.9% | viability, T/C (second compound 0.316 µM, first compound 3 µM) 73.4% | viability, T/C (second compound 1 µM, first compound 0.00949 µM) 97.1% | viability, T/C (second compound 1 µM, first compound 0.03 µM) 81.3% | viability, T/C (second compound 1 µM, first compound 0.0949 µM) 80.1% | viability, T/C (second compound 1 µM, first compound 0.3 µM) 77.3% | viability, T/C (second compound 1 µM, first compound 0.949 µM) 65.7% | viability, T/C (second compound 1 µM, first compound 3 µM) 92.2% | viability, T/C (second compound 3.16 µM, first compound 0.00949 µM) 91.5% | viability, T/C (second compound 3.16 µM, first compound 0.03 µM) 83.7% | viability, T/C (second compound 3.16 µM, first compound 0.0949 µM) 81.4% | viability, T/C (second compound 3.16 µM, first compound 0.3 µM) 65.9% | viability, T/C (second compound 3.16 µM, first compound 0.949 µM) 82% | viability, T/C (second compound 3.16 µM, first compound 3 µM) 57.6% | viability, T/C (second compound 10 µM, first compound 0.00949 µM) 97.1% | viability, T/C (second compound 10 µM, first compound 0.03 µM) 77.6% | viability, T/C (second compound 10 µM, first compound 0.0949 µM) 74.7% | viability, T/C (second compound 10 µM, first compound 0.3 µM) 60.5% | viability, T/C (second compound 10 µM, first compound 0.949 µM) 63.7% | viability, T/C (second compound 10 µM, first compound 3 µM) 36.4%
> 3 µM: IC50 (second compound 0.1 µM) | IC50 (second compound 0.316 µM) | IC50 (second compound 1 µM) | IC50 (second compound 3.16 µM)

Reference: PubChem BioAssay AID1918930 (Molecular Pharmacology Branch, DTP, NCI, 2023)
